According to the NIST ThermoML archive (doi:10.1016/j.fluid.2004.10.027):
± gives the expanded uncertainty stated by the source.

Assays:
[1] = Liquid; for mass density: 298.15 K, 101.33 kPa
[2] = refractive index (Na D-line) (dimensionless); conditions: 298.15 K; 101.33 kPa; Liquid; Standard Abbe refractometry

Compound	mass density [1]	refractive index [2]	other results
COCCOC [1,2-dimethoxyethane]	863.7 ± 1.8 kg/m3	1.3781 ± 0.0007	vapor or sublimation pressure ([1]; 357.05 K): 95.8 ± 4.8 kPa
Cc1ccccc1C [1,2-dimethylbenzene]	875.9 ± 1.7 kg/m3	1.503 ± 0.0007	vapor or sublimation pressure ([1]; 415.55 K): 95.8 ± 4.8 kPa
Cc1cccc(C)c1 [1,3-dimethylbenzene]	860.1 ± 1.8 kg/m3	1.4946 ± 0.0007	vapor or sublimation pressure ([1]; 410.35 K): 95.8 ± 4.8 kPa
Cc1ccc(C)cc1 [1,4-dimethylbenzene]	865.6 ± 4.7 kg/m3	1.4933 ± 0.0007	vapor or sublimation pressure ([1]; 409.35 K): 95.8 ± 4.8 kPa
O=C1CCCCC1 [cyclohexanone]	945.1 ± 1.1 kg/m3	1.451 ± 0.0007	vapor or sublimation pressure ([1]; 426.45 K): 95.8 ± 4.8 kPa
CCCCCCCCCC [decane]	726.4 ± 2.9 kg/m3	1.4097 ± 0.0007	vapor or sublimation pressure ([1]; 445.25 K): 95.8 ± 4.9 kPa
C1CCOC1 [tetrahydrofuran]	889.2 ± 4.7 kg/m3	1.4072 ± 0.0007	vapor or sublimation pressure ([1]; 337.55 K): 95.8 ± 4.8 kPa
